This is an account of results in patent US6623933B1 (priority 1999, dated 2003).

For one test, the target named is T1, wild-type NR1a/NR2A (Rattus norvegicus, UniProt P35439+Q00959).
T1 construct: expressed in transfected cells; host or cells: Xenopus laevis oocytes injected with in vitro transcribed mRNA
The test is described as follows: NMDA-induced currents, Xenopus oocytes, Example 5. The class given is cell-based. The following applies: 100 uM steroid, 300 uM NMDA, 50 uM Glycine.

Test [1] has as its system NMDA receptor (chick spinal cord neurons). The following applies: Park-Chung et al. 1997; cited from earlier work.
The next test addresses T2, NR1011/NR2B (Rattus norvegicus, UniProt P35439+Q00960).
T2 construct: expressed in transfected cells; host or cells: Xenopus oocytes
As to the kind of experiment: NMDA receptor currents in Ba-Ringer, Xenopus oocytes, Example 3. It counts as cell-based.

Another test concerns the target T3, NR1101/NR2B (Rattus norvegicus, UniProt P35439+Q00960).
T3 construct: expressed in transfected cells; host or cells: Xenopus oocytes
The description is as above. The class given is cell-based.

Another test addresses T4, NR1/NR2A (Rattus norvegicus, UniProt P35439+Q00959).
T4 construct: expressed in transfected cells; host or cells: Xenopus oocytes injected with mRNA
The test is described as follows: NMDA-induced membrane currents, Xenopus oocytes, Example 7. The class given is cell-based.

The target of the next test is T5, NR1/NR2C (Rattus norvegicus, UniProt P35439+Q00961).
T5 construct: expressed in transfected cells; host or cells: Xenopus oocytes injected with mRNA
T5 sequence (Q00961 20-1237, other chains not shown): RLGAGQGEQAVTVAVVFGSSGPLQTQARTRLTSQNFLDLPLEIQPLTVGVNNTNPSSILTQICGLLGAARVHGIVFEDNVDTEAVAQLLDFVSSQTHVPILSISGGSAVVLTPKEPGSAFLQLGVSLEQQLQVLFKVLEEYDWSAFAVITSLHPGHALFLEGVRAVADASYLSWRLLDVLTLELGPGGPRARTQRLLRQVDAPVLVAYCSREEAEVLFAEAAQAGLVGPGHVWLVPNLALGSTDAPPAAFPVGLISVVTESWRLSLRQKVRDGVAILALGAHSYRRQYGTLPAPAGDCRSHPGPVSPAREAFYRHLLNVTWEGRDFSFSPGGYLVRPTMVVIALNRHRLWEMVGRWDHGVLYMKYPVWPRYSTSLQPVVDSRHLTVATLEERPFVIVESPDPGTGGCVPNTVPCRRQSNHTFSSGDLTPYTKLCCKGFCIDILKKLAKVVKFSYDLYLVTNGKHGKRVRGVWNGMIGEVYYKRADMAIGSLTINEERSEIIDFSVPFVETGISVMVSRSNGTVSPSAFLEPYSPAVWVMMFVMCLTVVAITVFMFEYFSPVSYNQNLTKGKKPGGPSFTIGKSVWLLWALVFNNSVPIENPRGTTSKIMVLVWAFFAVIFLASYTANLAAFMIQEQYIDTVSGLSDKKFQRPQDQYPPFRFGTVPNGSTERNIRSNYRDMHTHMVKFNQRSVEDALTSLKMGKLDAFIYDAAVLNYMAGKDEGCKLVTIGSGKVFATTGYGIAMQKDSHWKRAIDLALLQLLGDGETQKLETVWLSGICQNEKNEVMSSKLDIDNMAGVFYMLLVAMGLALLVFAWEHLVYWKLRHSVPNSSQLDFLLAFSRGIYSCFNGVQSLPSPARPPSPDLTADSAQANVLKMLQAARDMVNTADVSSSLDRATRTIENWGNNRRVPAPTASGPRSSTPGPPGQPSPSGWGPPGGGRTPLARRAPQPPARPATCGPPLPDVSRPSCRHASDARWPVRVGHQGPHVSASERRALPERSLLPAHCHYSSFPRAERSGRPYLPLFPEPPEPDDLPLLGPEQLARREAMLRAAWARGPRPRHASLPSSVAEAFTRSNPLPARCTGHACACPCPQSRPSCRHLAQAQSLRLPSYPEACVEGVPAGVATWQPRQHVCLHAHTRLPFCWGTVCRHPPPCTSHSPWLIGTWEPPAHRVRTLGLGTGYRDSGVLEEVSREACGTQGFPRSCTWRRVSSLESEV
Described as above. It counts as cell-based.

For another test, the target named is T6, NR1/NR2D (Rattus norvegicus, UniProt P35439+Q62645).
T6 construct: expressed in transfected cells; host or cells: Xenopus oocytes injected with mRNA
T6 sequence (Q62645 28-1323, other chains not shown): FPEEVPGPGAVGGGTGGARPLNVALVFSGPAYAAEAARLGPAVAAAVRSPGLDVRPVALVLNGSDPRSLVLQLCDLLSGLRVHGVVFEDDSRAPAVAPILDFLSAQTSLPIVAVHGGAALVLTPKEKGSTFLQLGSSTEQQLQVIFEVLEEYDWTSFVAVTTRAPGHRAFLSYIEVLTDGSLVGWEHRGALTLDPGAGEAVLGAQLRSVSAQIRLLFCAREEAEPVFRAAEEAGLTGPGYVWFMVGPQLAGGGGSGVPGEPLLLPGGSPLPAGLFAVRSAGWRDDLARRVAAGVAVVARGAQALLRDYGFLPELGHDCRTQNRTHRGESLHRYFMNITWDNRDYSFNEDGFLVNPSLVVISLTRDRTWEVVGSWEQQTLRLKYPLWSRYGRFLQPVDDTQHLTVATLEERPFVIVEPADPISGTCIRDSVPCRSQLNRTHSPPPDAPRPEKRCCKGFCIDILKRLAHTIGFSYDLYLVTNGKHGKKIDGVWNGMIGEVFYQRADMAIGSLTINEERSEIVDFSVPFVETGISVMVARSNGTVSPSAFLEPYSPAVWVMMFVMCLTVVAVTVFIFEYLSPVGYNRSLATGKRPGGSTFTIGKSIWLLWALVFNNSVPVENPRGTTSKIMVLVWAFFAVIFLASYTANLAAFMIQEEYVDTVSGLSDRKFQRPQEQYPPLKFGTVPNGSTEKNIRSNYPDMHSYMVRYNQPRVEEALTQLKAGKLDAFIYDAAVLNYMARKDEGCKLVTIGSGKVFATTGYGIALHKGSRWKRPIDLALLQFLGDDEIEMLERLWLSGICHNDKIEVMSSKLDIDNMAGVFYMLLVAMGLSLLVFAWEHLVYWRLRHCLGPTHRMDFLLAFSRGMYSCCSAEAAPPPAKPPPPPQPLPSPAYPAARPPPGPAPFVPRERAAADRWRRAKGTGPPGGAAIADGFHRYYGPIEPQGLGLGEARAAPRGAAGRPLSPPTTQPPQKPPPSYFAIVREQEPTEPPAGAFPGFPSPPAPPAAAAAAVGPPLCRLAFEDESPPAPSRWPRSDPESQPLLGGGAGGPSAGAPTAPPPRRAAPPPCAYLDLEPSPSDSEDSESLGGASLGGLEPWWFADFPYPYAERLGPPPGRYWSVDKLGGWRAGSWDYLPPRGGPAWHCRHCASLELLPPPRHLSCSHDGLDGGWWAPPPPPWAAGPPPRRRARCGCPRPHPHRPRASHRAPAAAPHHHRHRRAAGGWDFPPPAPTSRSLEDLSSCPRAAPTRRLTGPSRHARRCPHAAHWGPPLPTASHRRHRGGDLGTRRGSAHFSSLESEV
Described as above. The class given is cell-based.

A further test addresses T7, NR1011/NR2Bwt (Rattus norvegicus, UniProt P35439+Q00960).
T7 construct: expressed in transfected cells; host or cells: Xenopus oocytes
The test is described as follows: NR2 chimera study, Xenopus oocytes, Example 7. The class given is cell-based. The following applies: 100 μM PS; 300 μM NMDA; 50 μM Glycine. An excerpt:
(§1) The chimeric receptors were generated by first introducing a series of silent restriction sites in both the NR2B and NR2D cDNA. The chimeric cDNAs were then constructed by replacing corresponding regions of one cDNA with that of the other. The silence site mutations were generated by a method involving PCR. […] This cassette was then ligated into the cDNA cut with the same two restriction enzymes.

The target in the next test is T8, NR1011/NR2Dwt (Rattus norvegicus, UniProt P35439+Q62645).
T8 construct: expressed in transfected cells; host or cells: Xenopus oocytes
T8 sequence (Q62645 28-1323, other chains not shown): as above
The test is described as follows: NR2 chimera study, Xenopus oocytes, Example 7. It counts as cell-based. The note with it: 100 μM PS; 300 μM NMDA; 50 μM Glycine.
Excerpt: as §1

The target of test [2] is T9, NR1011/NR2B-D Chimera(II) (Rattus norvegicus, UniProt P35439+Q00960+Q62645, A556P/A573T/A605S/A700P/A704S/A794R/A827V/A830G/C588S/C838W/D557A/D591T/D676E/D715E/D716E/D769G/E594R/E701D/E791M/E804D/F554Y/F580L/F677Q/F681L/F709Y/F784L/F842V/F846L/G611A/G707V/G713R/G741R/G771R/G787D/G826L/I530V/I568T/I766L/I780L/I834L/I837A/K624R/K669R/K708R/L566C/L719T/L783F/M789I/N675Q/N697S/N806I/P598S/Q621E/Q662T/Q767H/Q775P/Q812K/Q845R/R593K/R682K/R693K/R712P/R742K/S539A/S570V/S599T/S633L/S678Y/S720Q/S759T/T723A/T798S/T835V/V576I/V776I).
T9 construct: expressed in transfected cells; host or cells: Xenopus oocytes
The test is described as follows: NR2 chimera study, Xenopus oocytes, Example 7. The class given is cell-based. The note with it: 100 μM PS; 300 μM NMDA; 50 μM Glycine.
Excerpt: To produce the first subunit, 96% of the cytoplasmic COOH-terminal region of the NR2B subunit (residues 870 to 1482) were replaced with the corresponding region of the NR2D subunit (residues 892 to 1323).
as §1

The next test addresses NR1000/NR2A (Rattus norvegicus, UniProt P35439+Q00959). The test is described as follows: NMDA-induced currents of NR1 splice variants, Xenopus oocytes, Example 4. The class given is cell-based. On the set-up: expressed in transfected cells; host or cells: Xenopus oocytes injected with NR1000 and NR2A mRNA. The note with it: NR1000/2A; 100 μM PS; 200 μM NMDA+10 μM glycine. As for the experimental part: (§2) Overnight cultures (500 ml) of transformed bacterial cells were prepared in order to grow sufficient quantities for maxiprep isolation of the plasmid CDNA. Maxipreps were done using a Sorvall RC-5B ultracentrifuge, Qiagen columns and cDNA was quantitated with spectrophotometry (OD260 and OD260/ OD280 ratio). The resulting plasmid cDNA was linearized by digestion with an appropriate restriction enzyme that cleaves distal to the cDNA insert (XhoI for NR2A or NotI for NR1100, NR1000, NR1111, NR1011, NR1101, NR1001). […] The samples were stored at −20° C. until use.
(§3) In vitro transcription was performed using the Ambion mMessage mMachine kit with T7 (NR1100, NR1000, NR1111, NR1011, NR1101, NR1001) RNA polymerase. The reaction was assembled on ice and allowed to incubate at 37° C. for 1-2 hr. The resulting mRNA was precipitated (reaction termination) using lithium chloride/5 mM EDTA solution and dissolved in RNase-free H2O. The concentration (OD260) and OD260/OD280 ratio (should be more than 1.5) was determined by spectrophotometer. The yield of mRNA was generally 15-30 μg. mRNA was stored at −80° C. until use.
(§4) Intracellular recording microelectrodes were fabricated from 100 μl borosilicate glass disposable micropipettes using a 2-step protocol on a standard horizontal Flaming-Brown micropipette puller.

For the next test, the target named is NR1101/NR2A (Rattus norvegicus, UniProt P35439+Q00959). The test is described as above. On the set-up: expressed in transfected cells; host or cells: Xenopus oocytes injected with NR1101 and NR2A mRNA. The note with it: NR1101/2A; 100 μM PS; 200 μM NMDA+10 μM glycine. It counts as cell-based. As for the experimental part:
as §2, §3, §4

Counter-ions that a name gives are not always drawn.

T2 sequence (Q00960 27-1482, other chains not shown): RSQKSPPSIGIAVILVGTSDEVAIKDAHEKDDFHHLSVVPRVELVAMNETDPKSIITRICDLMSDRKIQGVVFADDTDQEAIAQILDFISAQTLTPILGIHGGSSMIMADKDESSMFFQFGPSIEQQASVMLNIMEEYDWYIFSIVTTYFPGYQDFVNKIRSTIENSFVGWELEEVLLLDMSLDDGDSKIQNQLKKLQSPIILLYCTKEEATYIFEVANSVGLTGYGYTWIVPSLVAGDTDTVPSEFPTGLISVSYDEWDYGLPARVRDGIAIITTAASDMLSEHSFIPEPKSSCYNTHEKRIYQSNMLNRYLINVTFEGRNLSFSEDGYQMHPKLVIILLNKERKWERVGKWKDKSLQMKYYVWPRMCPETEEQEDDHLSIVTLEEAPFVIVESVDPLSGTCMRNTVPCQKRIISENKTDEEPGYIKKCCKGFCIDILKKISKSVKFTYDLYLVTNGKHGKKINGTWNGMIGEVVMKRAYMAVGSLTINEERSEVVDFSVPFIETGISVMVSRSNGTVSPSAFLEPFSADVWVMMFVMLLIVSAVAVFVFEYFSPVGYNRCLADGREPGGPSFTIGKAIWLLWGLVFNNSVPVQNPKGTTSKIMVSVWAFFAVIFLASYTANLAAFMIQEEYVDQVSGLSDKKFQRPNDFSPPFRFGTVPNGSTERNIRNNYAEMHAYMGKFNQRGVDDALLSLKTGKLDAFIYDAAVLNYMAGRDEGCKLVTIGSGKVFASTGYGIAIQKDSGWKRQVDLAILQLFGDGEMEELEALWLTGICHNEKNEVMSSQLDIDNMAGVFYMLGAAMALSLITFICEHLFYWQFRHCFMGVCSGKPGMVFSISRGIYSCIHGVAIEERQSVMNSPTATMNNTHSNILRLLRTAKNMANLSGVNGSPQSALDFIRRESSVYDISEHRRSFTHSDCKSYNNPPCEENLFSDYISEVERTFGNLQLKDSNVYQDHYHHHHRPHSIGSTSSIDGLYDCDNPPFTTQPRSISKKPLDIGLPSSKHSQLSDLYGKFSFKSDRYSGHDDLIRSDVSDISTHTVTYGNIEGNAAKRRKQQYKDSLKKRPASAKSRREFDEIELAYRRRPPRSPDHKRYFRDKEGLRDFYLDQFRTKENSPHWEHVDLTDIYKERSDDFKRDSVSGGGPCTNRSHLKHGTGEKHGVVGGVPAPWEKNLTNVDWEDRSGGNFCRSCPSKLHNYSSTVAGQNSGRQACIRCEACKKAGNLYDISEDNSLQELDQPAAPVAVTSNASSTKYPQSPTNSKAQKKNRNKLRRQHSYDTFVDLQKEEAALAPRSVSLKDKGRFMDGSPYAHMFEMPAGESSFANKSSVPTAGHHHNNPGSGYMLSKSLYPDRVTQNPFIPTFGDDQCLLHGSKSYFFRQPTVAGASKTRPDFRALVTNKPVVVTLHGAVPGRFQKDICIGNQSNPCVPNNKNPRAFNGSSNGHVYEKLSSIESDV
Procedure for NR1/NR2A: (§5) Plasmids were linearized with appropriate restriction enzyme prior to in vitro transcription using the Message Machine kit (Ambion, Inc., Austin, Tex.).
(§6) Oocytes were injected with 50 nL of RNA solutions using an electronic microinjector (Drummond Inc., Broomall, Pa.). […] The injected oocytes were used for experiments following 1-5 days of incubation in Barth's solution at 18-20° C.
(§7) The microelectrodes were fabricated with a programmed puller (Sutter Instrument Co., Calif.) from borosilicate glass capillaries and were filled with 3 M KCl solution. The resistance of filled microelectrodes was in the range of 1-3 MΩ. […] If not mentioned otherwise, during data acquisition oocytes were clamped at a holding potential of −70 mV. The membrane current was filtered at 500 Hz and sampled at 100 Hz. Drugs were applied using a gravity driven external perfusion system. The working ,volume of the recording chamber was 30 μl and the rate of the perfusion was 50 μl/sec. The drug application lasted 10 sec and was followed by a 60 sec wash. The data acquisition and external perfusion control were done using the SuperScopeII software package (GW Instruments, Mass.). […] Peak or steady-state current measurements were normalized and expressed as a fraction of the peak or steady-state control current measurements, which were performed before and after application of every single consentration of agonist or steroid. […]
Procedure for NR1/NR2C: as §5, §6, §7
Procedure for NR1/NR2D: as §5, §6, §7
Procedure for wild-type NR1a/NR2A: as §5
Female, oocyte positive Xenopus laevis frogs were purchased from Xenopus I (Dexter, Mich). […] Oocytes were injected with 50 nL of RNA solutions using an electronic microinjector (Drummond Inc., Broomall, Pa.). […] The injected oocytes were used for experiments following 1-5 days of incubation in Barth's solution at 18-20° C.
The microelectrodes were fabricated with a programmed puller (Sutter Instrument Co., Calif.) from borosilicate glass capillaries and were filled with 3 M KCl solution. The resistance of filled microelectrodes was in the range of 1-3 MΩ. […] If not mentioned otherwise, during data acquisition oocytes were clamped at a holding potential of −70 mV. The membrane current was filtered at 500 Hz and sampled at 100 Hz. Drugs were applied using a gravity driven external perfusion system. The working ,volume of the recording chamber was 30 μl and the rate of the perfusion was 50 μl/sec. The drug application lasted 10 sec and was followed by a 60 sec wash. The data acquisition and external perfusion control were done using the SuperScopeII software package (GW Instruments, Mass.). All experiments were performed at room temperature (22-24° C.). […] The data are presented as mean±S.E.M. with number of experiments in parentheses.

Take `CC(=O)[C@H]1CC[C@H]2[C@@H]3CC[C@@H]4C[C@H](OS(=O)(=O)O)CC[C@]4(C)[C@H]3CC[C@]12C` [3α5βS, 3α5β-pregnanolone sulfate]: the “percent decrease in maximum inward current” value at wild-type NR1a/NR2A was determined as 45.49±5.76%. The “modulation of NMDA-induced current” value in test [1] was “strong inhibitors”.
Regarding pregnenolone sulfate [PS], the “PS Emax” value at NR1011/NR2B is recorded as 0.78 ± 0.14; on NR1101/NR2B it was 1.03 ± 0.02. The “PS nHill” value is on record as 1.29 ± 0.19 on NR1011/NR2B and 1.63 ± 0.29 on NR1101/NR2B. Further, on NR1/NR2A (100 μM PS, 80 μM NMDA, 10 μM glycine), the “potentiation of NMDA responsive membrane current” value worked out at 59±4%. For the same compound, the maximum potentiation at NR1/NR2A (PS 0.5 to 200 μM) is 67±7%. The “inhibition of NMDA-induced membrane currents” value on NR1/NR2C (100 μM PS, […] μM NMDA, 10 μM glycine) is 32±3%; at NR1/NR2D (100 μM PS, 10 μM NMDA, 10 μM glycine), 29±2%. For the same compound, the maximum inhibition is listed as 63±9% on NR1/NR2C (PS 0.5 to 200 μM) and 70±6% on NR1/NR2D (PS 0.5 to 200 μM). In addition, at NR1011/NR2Bwt, the “potentiation of inward current” value stood at 78.36±7.89%. Besides, the “inhibition of inward current” value at NR1011/NR2Dwt is 45.18±2.62%; in test [2], 43.04±5.44%. Moreover, the “maximum relative current (MRC)” value was 1.29 at NR1000/NR2A and 1.78 at NR1101/NR2A.
